Where two headings read alike, the source gives them in different places.
Biological target: T1, human GPR120 (Homo sapiens, UniProt Q5NUL3)
T1 construct: host or cells: HEK293 cells coexpressing Gqi5
T1 sequence (Q5NUL3 1-361): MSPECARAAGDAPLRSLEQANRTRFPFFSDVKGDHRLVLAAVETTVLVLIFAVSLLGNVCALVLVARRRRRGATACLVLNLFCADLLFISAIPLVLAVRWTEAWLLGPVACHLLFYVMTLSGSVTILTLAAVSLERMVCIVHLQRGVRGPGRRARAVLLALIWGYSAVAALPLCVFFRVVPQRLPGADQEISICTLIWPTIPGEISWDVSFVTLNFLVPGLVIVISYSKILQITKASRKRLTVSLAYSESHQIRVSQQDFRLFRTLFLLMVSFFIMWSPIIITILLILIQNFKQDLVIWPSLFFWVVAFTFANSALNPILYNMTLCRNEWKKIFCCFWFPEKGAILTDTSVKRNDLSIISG
Experiment: Intracellular Ca2+ (FLIPR Calcium 4, Flexstation) assay in human GPR120 stable HEK293 cell line coexpressing Gqi5
Assay type: cell-based
Conditions: for % Activity at 5 μM: 5 μM compound compared to the maximal activity of GW9508 at 6.7 μM (100%); for EC50: human GPR120 stably expressing cells, 8 concentrations 0.00001 to 20 μM
Summary of the method: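 Calcium 4 dye-loaded HEK293 cells expressing N-terminally Flag-tagged human GPR120 with Gqi5 (HBSS/20 mM HEPES, pH 7.4; 50 min, 37 °C). Fluorescence (485/525 nm) read for 90 s after addition of compound at 8 concentrations, 0.00001–20 μM; EC50 from Max−Min change. % activity at 5 μM versus maximal GW9508 response (6.7 μM).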

[1] = read-out: EC50 between >1 μM and ≦10 μM

| Structure (SMILES) | % Activity at 5 μM | EC50 (read-out: EC50 > 10 μM) | EC50 (read-out: EC50 ≦ 1 μM) | EC50 [1] |
| --- | --- | --- | --- | --- |
| Cc1cc(COc2c(F)cc(CC(C)C(=O)O)cc2F)n(-c2ccc(C3CCCCC3)cc2)n1 (stereo not drawn) [Example 104, 3-(4-((1-(4-Cyclohexylphenyl)-3-methyl-1H-pyrazol-5-yl)methoxy)-3,5-difluorophenyl)-2-methylpropanoic acid] | 27% | > 10000 nM |  |  |
| CCCc1ccc(-n2nc(C)cc2COc2c(F)cc(CC(C)C(=O)O)cc2F)cc1 (stereo not drawn) [Example 105, 3-(3,5-Difluoro-4-((3-methyl-1-(4-propylphenyl)-1H-pyrazol-5-yl)methoxy)phenyl)-2-methylpropanoic acid] | 99% |  | ≤ 1000 nM |  |
| Cc1cc(COc2cc3c(cc2F)C(CC(=O)O)CC3)n(-c2ccc(Cl)cc2)n1 (stereo not drawn) [Example 106, 2-(5-((1-(4-Chlorophenyl)-3-methyl-1H-pyrazol-5-yl)methoxy)-6-fluoro-2,3-dihydro-1H-inden-1-yl)acetic acid] | 88% |  | ≤ 1000 nM |  |
| Cc1cc(COc2c(F)cc(C3=C(C(=O)O)CCC3)cc2F)n(-c2ccc(Cl)cc2)n1 [Example 107, 2-(4-((1-(4-Chlorophenyl)-3-methyl-1H-pyrazol-5-yl)methoxy)-3,5-difluorophenyl)cyclopent-1-enecarboxylic acid] | 32% |  |  | 1000 to 10000 nM |
| Cc1cc(COc2ccc(CC(C)C(=O)O)cc2F)n(-c2ccc(Cl)cc2)n1 (stereo not drawn) [Example 108, 3-(4-((1-(4-Chlorophenyl)-3-methyl-1H-pyrazol-5-yl)methoxy)-3-fluorophenyl)-2-methylpropanoic acid] | 106% |  | ≤ 1000 nM |  |
| Cc1cc(COc2ccc(CC(C)C(=O)O)cc2C)n(-c2ccc(Cl)cc2)n1 (stereo not drawn) [Example 109, 3-(4-((1-(4-Chlorophenyl)-3-methyl-1H-pyrazol-5-yl)methoxy)-3-methylphenyl)-2-methylpropanoic acid] | 114% |  | ≤ 1000 nM |  |
| Cc1cc(COc2c(F)cc(CC(C)C(=O)O)cc2F)n(-c2ncc(Cl)cn2)n1 (stereo not drawn) [Example 110, 3-(4-((1-(5-Chloropyrimidin-2-yl)-3-methyl-1H-pyrazol-5-yl)methoxy)-3,5-difluorophenyl)-2-methylpropanoic acid] | 19% | > 10000 nM |  |  |
| COc1cc(CC(C)C(=O)O)ccc1OCc1cc(C)nn1-c1ccc(Cl)cc1 (stereo not drawn) [Example 112, 3-(4-((1-(4-Chlorophenyl)-3-methyl-1H-pyrazol-5-yl)methoxy)-3-methoxyphenyl)-2-methylpropanoic acid] | 83% |  |  | 1000 to 10000 nM |
| Cc1cc(COc2c(Cl)cc(CC(C)C(=O)O)cc2Cl)n(-c2ccc(Cl)cc2)n1 (stereo not drawn) [Example 113, 3-(3,5-Dichloro-4-((1-(4-chlorophenyl)-3-methyl-1H-pyrazol-5-yl)methoxy)phenyl)-2-methylpropanoic acid] | 92% |  | ≤ 1000 nM |  |
| CC(Cc1cc(F)c(OCc2c(C(F)(F)F)nn(C)c2Oc2ccccc2)c(F)c1)C(=O)O (stereo not drawn) [Example 114, 3-(3,5-Difluoro-4-((1-methyl-5-phenoxy-3-(trifluoromethyl)-1H-pyrazol-4-yl)methoxy)phenyl)-2-methylpropanoic acid] | 111% |  | ≤ 1000 nM |  |
| CC(Cc1cc(F)c(OCc2c(C(F)(F)F)nn(C)c2Oc2ccc(Cl)cc2)c(F)c1)C(=O)O (stereo not drawn) [Example 115, 3-(4-((5-(4-Chlorophenoxy)-1-methyl-3-(trifluoromethyl)-1H-pyrazol-4-yl)methoxy)-3,5-difluorophenyl)-2-methylpropanoic Acid] | 118% |  | ≤ 1000 nM |  |
| Cc1cc(COc2c(F)cc(CC(C)C(=O)O)cc2F)c(-c2ccccc2)o1 (stereo not drawn) [Example 116, 3-(3,5-Difluoro-4-((5-methyl-2-phenylfuran-3-yl)methoxy)phenyl)-2-methylpropanoic acid] | 115% |  | ≤ 1000 nM |  |
| CC(Cc1cc(F)c(OCc2cc(C(F)(F)F)nn2-c2ccc(Cl)cc2)c(F)c1)C(=O)O (stereo not drawn) [Example 117, 3-(4-((1-(4-chlorophenyl)-3-(trifluoromethyl)-1H-pyrazol-5-yl)methoxy)-3,5-difluorophenyl)-2-methylpropanoic acid] | 105% |  | ≤ 1000 nM |  |
| O=C(O)CC1CCc2cc(OCc3cc(C(F)(F)F)nn3-c3ccc(Cl)cc3)ccc21 (stereo not drawn) [Example 119, 2-(5-((1-(4-chlorophenyl)-3-(trifluoromethyl)-1H-pyrazol-5-yl)methoxy)-2,3-dihydro-1H-inden-1-yl)acetic acid] | 92% |  |  |  |
| Cc1cc(COc2ccc3c(c2)CCC3CC(=O)O)n(-c2ccc3c(c2)CCC3)n1 (stereo not drawn) [Example 120, 2-(5-((1-(2,3-dihydro-1H-inden-5-yl)-3-methyl-1H-pyrazol-5-yl)methoxy)-2,3-dihydro-1H-inden-1-yl)acetic acid] | 94% |  | ≤ 1000 nM |  |
| Cc1cc(COc2c(F)cc(CC(C)C(=O)O)cc2F)n(-c2ccccc2)n1 (stereo not drawn) [Example 122, 3-(3,5-difluoro-4-((3-methyl-1-phenyl-1H-pyrazol-5-yl)methoxy)phenyl)-2-methylpropanoic acid] | 91% |  | ≤ 1000 nM |  |
| Cc1cc(COc2c(F)cc(CC(C)C(=O)O)cc2F)n(-c2ccccn2)n1 (stereo not drawn) [Example 124, 3-(3,5-difluoro-4-((3-methyl-1-(pyridin-2-yl)-1H-pyrazol-5-yl)methoxy)phenyl)-2-methylpropanoic acid] | 33% | > 10000 nM |  |  |
| Cc1cc(COc2c(F)cc(CCCC(=O)O)cc2F)n(-c2ccc(Cl)cc2)n1 [Example 128, 4-(4-((1-(4-chlorophenyl)-3-methyl-1H-pyrazol-5-yl)methoxy)-3,5-difluorophenyl)butanoic acid] | 112% |  | ≤ 1000 nM |  |
| CCc1ccc(-n2nc(C)cc2COc2c(F)cc(CCCC(=O)O)cc2F)cc1 [Example 130, 4-(4-((1-(4-ethylphenyl)-3-methyl-1H-pyrazol-5-yl)methoxy)-3,5-difluorophenyl)butanoic acid] | 103% |  | ≤ 1000 nM |  |

Second part, the compound after the results:

| % Activity at 5 μM | EC50 (read-out: EC50 > 10 μM) | EC50 (read-out: EC50 ≦ 1 μM) | EC50 [1] | Structure (SMILES) |
| --- | --- | --- | --- | --- |
| 80% |  | ≤ 1000 nM |  | Cc1cc(COc2ccc(C=C3CC(C(=O)O)C3)cc2)n(-c2ccc(Cl)cc2)n1 (stereo not drawn) [Example 111, 3-(4-((1-(4-Chlorophenyl)-3-methyl-1H-pyrazol-5-yl)methoxy)benzylidene)cyclobutanecarboxylic acid] |
| 103% |  | ≤ 1000 nM |  | CCc1cc(OCc2cc(C)nn2-c2ccc(Cl)cc2)ccc1CCC(=O)O [Example 118, 3-(4-((1-(4-chlorophenyl)-3-methyl-1H-pyrazol-5-yl)methoxy)-2-ethylphenyl)propanoic acid] |
| 94% |  | ≤ 1000 nM |  | CCc1ccc(-n2nc(C)cc2COc2ccc3c(c2)CCC3CC(=O)O)cc1 (stereo not drawn) [Example 121, 2-(5-((1-(4-ethylphenyl)-3-methyl-1H-pyrazol-5-yl)methoxy)-2,3-dihydro-1H-inden-1-yl)acetic acid] |
| 67% | > 10000 nM |  |  | CCc1ccc(-n2nc(C)cc2COc2ccc3c(c2)CCCC3CC(=O)O)cc1 (stereo not drawn) [Example 123, 2-(6-((1-(4-ethylphenyl)-3-methyl-1H-pyrazol-5-yl)methoxy)-1,2,3,4-tetrahydronaphthalen-1-yl)acetic acid] |
| 47% |  |  | 1000 to 10000 nM | Cc1cc(COc2ccc(C(C)(C)CC(=O)O)cc2)n(-c2ccc(Cl)cc2)n1 [Example 125, 3-(4-((1-(4-chlorophenyl)-3-methyl-1H-pyrazol-5-yl)methoxy)phenyl)-3-methylbutanoic acid] |
| 48% |  |  | 1000 to 10000 nM | CCc1ccc(-n2nc(C)cc2COc2ccc(C(C)(C)CC(=O)O)cc2)cc1 [Example 126, 3-(4-((1-(4-ethylphenyl)-3-methyl-1H-pyrazol-5-yl)methoxy)phenyl)-3-methylbutanoic acid] |
| 112% |  | ≤ 1000 nM |  | Cc1cc(COc2ccc(CCCC(=O)O)cc2)n(-c2ccc(Cl)cc2)n1 [Example 127, 4-(4-((1-(4-chlorophenyl)-3-methyl-1H-pyrazol-5-yl)methoxy)phenyl)butanoic acid] |
| 99% |  | ≤ 1000 nM |  | CCc1ccc(-n2nc(C)cc2COc2ccc(CCCC(=O)O)cc2)cc1 [Example 129, 4-(4-((1-(4-ethylphenyl)-3-methyl-1H-pyrazol-5-yl)methoxy)phenyl)butanoic acid] |
| 68% |  |  | 1000 to 10000 nM | Cc1cc(COc2ccc(CCC(C)C(=O)O)cc2)n(-c2ccc(Cl)cc2)n1 (stereo not drawn) [Example 131, 4-(4-((1-(4-chlorophenyl)-3-methyl-1H-pyrazol-5-yl)methoxy)phenyl)-2-methylbutanoic acid] |
| 85% |  |  | 1000 to 10000 nM | CCc1ccc(-n2nc(C)cc2COc2ccc(CCC(C)C(=O)O)cc2)cc1 (stereo not drawn) [Example 132, 4-(4-((1-(4-ethylphenyl)-3-methyl-1H-pyrazol-5-yl)methoxy)phenyl)-2-methylbutanoic acid] |
